Measured values from the NIST ThermoML archive (doi:10.1021/je500792x).
Numbers after ± are expanded uncertainties.

Test: xn = mol fraction of the nth substance listed
Conditions: Gas, Buoyancy - hydrostatic balance with magnetic suspension - two sinkers

C [methane] + CCC
Conditions	mass density [kg/m3]
293.15 K, 1153.9 kPa, x1 = 0.2658	20.3554 ± 0.0076
293.15 K, 1175 kPa, x1 = 0.2658	20.8043 ± 0.0077
293.15 K, 1187.5 kPa, x1 = 0.2658	21.0718 ± 0.0077
293.15 K, 1209.4 kPa, x1 = 0.5069	16.361 ± 0.01
293.15 K, 1399.6 kPa, x1 = 0.5069	19.2777 ± 0.011
293.15 K, 1605.8 kPa, x1 = 0.5069	22.5759 ± 0.014
298.14 K, 160.58 kPa, x1 = 0.2658	2.414 ± 0.0033
298.15 K, 311.48 kPa, x1 = 0.2658	4.7646 ± 0.0036
298.15 K, 471.27 kPa, x1 = 0.2658	7.3487 ± 0.0038
298.15 K, 493.82 kPa, x1 = 0.7498	4.6835 ± 0.004
298.15 K, 500.2 kPa, x1 = 0.7498	4.742 ± 0.004
298.15 K, 605.41 kPa, x1 = 0.2658	9.6013 ± 0.0045
298.15 K, 758.38 kPa, x1 = 0.2658	12.2732 ± 0.0053
298.15 K, 785.06 kPa, x1 = 0.7498	7.5358 ± 0.0043
298.15 K, 909.2 kPa, x1 = 0.2658	15.0282 ± 0.0061
298.15 K, 999.01 kPa, x1 = 0.7498	9.679 ± 0.0051
298.15 K, 1000.6 kPa, x1 = 0.7498	9.6924 ± 0.0051
298.15 K, 1055.1 kPa, x1 = 0.2658	17.8236 ± 0.0065
298.15 K, 1094 kPa, x1 = 0.7498	10.6384 ± 0.0051
298.15 K, 1201.2 kPa, x1 = 0.2658	20.7664 ± 0.0076
298.15 K, 1355.7 kPa, x1 = 0.2658	24.0659 ± 0.0087
298.15 K, 1372.4 kPa, x1 = 0.7498	13.507 ± 0.0067
298.15 K, 1686.6 kPa, x1 = 0.7498	16.8301 ± 0.0078
298.15 K, 1999.5 kPa, x1 = 0.7498	20.2389 ± 0.0083
298.15 K, 2001.4 kPa, x1 = 0.7498	20.2558 ± 0.0083
298.15 K, 2075.4 kPa, x1 = 0.7498	21.0754 ± 0.0083
298.15 K, 3006.3 kPa, x1 = 0.7498	31.9148 ± 0.01
298.15 K, 3043.9 kPa, x1 = 0.7498	32.3714 ± 0.01
298.15 K, 3990.5 kPa, x1 = 0.7498	44.5527 ± 0.013
298.15 K, 4003.1 kPa, x1 = 0.7498	44.7224 ± 0.013
298.15 K, 4119.5 kPa, x1 = 0.7498	46.3151 ± 0.013
298.15 K, 4424.2 kPa, x1 = 0.7498	50.5647 ± 0.015
298.15 K, 4993.9 kPa, x1 = 0.7498	58.9113 ± 0.0099
298.15 K, 5997.5 kPa, x1 = 0.7498	74.9816 ± 0.012
298.15 K, 5999.6 kPa, x1 = 0.7498	75.0173 ± 0.012
323.16 K, 434.83 kPa, x1 = 0.5069	4.9489 ± 0.0045
323.16 K, 609.43 kPa, x1 = 0.5069	7.005 ± 0.0053
323.16 K, 747.99 kPa, x1 = 0.7498	6.5657 ± 0.004
323.16 K, 981.92 kPa, x1 = 0.7498	8.6824 ± 0.0046
323.16 K, 1028.4 kPa, x1 = 0.5069	12.1152 ± 0.0075
323.16 K, 1206.2 kPa, x1 = 0.5069	14.365 ± 0.0088
323.16 K, 1225.9 kPa, x1 = 0.7498	10.9233 ± 0.0053
323.16 K, 1407.1 kPa, x1 = 0.5069	16.9693 ± 0.01
323.16 K, 1492.3 kPa, x1 = 0.7498	13.4094 ± 0.006
323.16 K, 1603.4 kPa, x1 = 0.5069	19.5802 ± 0.01
323.16 K, 1721 kPa, x1 = 0.7498	15.578 ± 0.0074
323.16 K, 1804.7 kPa, x1 = 0.5069	22.3318 ± 0.013
323.16 K, 1913.8 kPa, x1 = 0.5069	23.855 ± 0.015
323.16 K, 1988.8 kPa, x1 = 0.7498	18.1586 ± 0.0079
323.16 K, 3017.7 kPa, x1 = 0.7498	28.51 ± 0.0089
323.16 K, 4475.4 kPa, x1 = 0.7498	44.4692 ± 0.011
323.16 K, 5928.8 kPa, x1 = 0.7498	62.0416 ± 0.01
323.17 K, 161.42 kPa, x1 = 0.2658	2.2297 ± 0.003
323.17 K, 240.14 kPa, x1 = 0.5069	2.7038 ± 0.0032
323.17 K, 277.8 kPa, x1 = 0.2658	3.8766 ± 0.0033
323.17 K, 380.81 kPa, x1 = 0.2658	5.3632 ± 0.0036
323.17 K, 474.08 kPa, x1 = 0.2658	6.7339 ± 0.0037
323.17 K, 556.87 kPa, x1 = 0.2658	7.9706 ± 0.0041
323.17 K, 653.58 kPa, x1 = 0.2658	9.4407 ± 0.0043
323.17 K, 814.12 kPa, x1 = 0.5069	9.4697 ± 0.0061
323.17 K, 861.14 kPa, x1 = 0.2658	12.694 ± 0.005
323.17 K, 956.3 kPa, x1 = 0.2658	14.2336 ± 0.0056
323.17 K, 1057.6 kPa, x1 = 0.2658	15.9088 ± 0.0059
323.17 K, 1155.4 kPa, x1 = 0.2658	17.5614 ± 0.007
373.14 K, 736.34 kPa, x1 = 0.5069	7.2655 ± 0.005
373.14 K, 1298.1 kPa, x1 = 0.5069	13.0615 ± 0.0077
373.14 K, 1387.2 kPa, x1 = 0.5069	14.0021 ± 0.0084
373.14 K, 1906.7 kPa, x1 = 0.5069	19.6043 ± 0.012
373.15 K, 286.24 kPa, x1 = 0.5069	2.7813 ± 0.0033
373.15 K, 293.98 kPa, x1 = 0.7498	2.1956 ± 0.0029
373.15 K, 494.25 kPa, x1 = 0.7498	3.7047 ± 0.0033
373.15 K, 559.53 kPa, x1 = 0.5069	5.4874 ± 0.0042
373.15 K, 587.98 kPa, x1 = 0.5069	5.7723 ± 0.0043
373.15 K, 732.21 kPa, x1 = 0.7498	5.5128 ± 0.0037
373.15 K, 776.15 kPa, x1 = 0.5069	7.6695 ± 0.005
373.15 K, 942.67 kPa, x1 = 0.5069	9.3682 ± 0.0061
373.15 K, 969.14 kPa, x1 = 0.5069	9.6405 ± 0.0061
373.15 K, 973.87 kPa, x1 = 0.7498	7.3646 ± 0.0042
373.15 K, 1118.7 kPa, x1 = 0.5069	11.1859 ± 0.0072
373.15 K, 1177.4 kPa, x1 = 0.5069	11.7969 ± 0.0073
373.15 K, 1222.4 kPa, x1 = 0.7498	9.2859 ± 0.0047
373.15 K, 1491.1 kPa, x1 = 0.7498	11.3819 ± 0.0055
373.15 K, 1497 kPa, x1 = 0.5069	15.1688 ± 0.0086
373.15 K, 1581.5 kPa, x1 = 0.5069	16.0735 ± 0.0087
373.15 K, 1707.3 kPa, x1 = 0.5069	17.4293 ± 0.0087
373.15 K, 1745.3 kPa, x1 = 0.5069	17.8434 ± 0.016
373.15 K, 1990.9 kPa, x1 = 0.7498	15.3338 ± 0.0069
373.15 K, 1998.3 kPa, x1 = 0.7498	15.3921 ± 0.0069
373.15 K, 1999.3 kPa, x1 = 0.5069	20.6289 ± 0.012
373.15 K, 3998.4 kPa, x1 = 0.7498	31.915 ± 0.0087
373.15 K, 4503 kPa, x1 = 0.7498	36.2589 ± 0.0093
373.15 K, 5859.6 kPa, x1 = 0.7498	48.2829 ± 0.0089
373.16 K, 150.36 kPa, x1 = 0.2658	1.7881 ± 0.003
373.16 K, 249.5 kPa, x1 = 0.2658	2.984 ± 0.0032
373.16 K, 442.47 kPa, x1 = 0.2658	5.3479 ± 0.0036
373.16 K, 487.18 kPa, x1 = 0.7498	3.6521 ± 0.0033
373.16 K, 564.91 kPa, x1 = 0.2658	6.8735 ± 0.0038
373.16 K, 592.63 kPa, x1 = 0.2658	7.2228 ± 0.0039
373.16 K, 676.04 kPa, x1 = 0.2658	8.2772 ± 0.0041
373.16 K, 733.18 kPa, x1 = 0.2658	9.007 ± 0.0042
373.16 K, 866.5 kPa, x1 = 0.2658	10.7249 ± 0.0047
373.16 K, 883.43 kPa, x1 = 0.2658	10.9464 ± 0.0047
373.16 K, 963.18 kPa, x1 = 0.2658	11.9881 ± 0.0049
373.16 K, 991.05 kPa, x1 = 0.7498	7.4967 ± 0.0042
373.16 K, 1034.3 kPa, x1 = 0.2658	12.9279 ± 0.005
373.16 K, 1057.2 kPa, x1 = 0.2658	13.2303 ± 0.0052
373.16 K, 1156.4 kPa, x1 = 0.2658	14.557 ± 0.0055
373.16 K, 1174.7 kPa, x1 = 0.2658	14.8058 ± 0.0055
373.16 K, 1293.1 kPa, x1 = 0.2658	16.4139 ± 0.0059
373.16 K, 1468.2 kPa, x1 = 0.7498	11.1998 ± 0.0055
373.16 K, 1985.8 kPa, x1 = 0.7498	15.2929 ± 0.0069
373.16 K, 2987.4 kPa, x1 = 0.7498	23.4236 ± 0.0075
373.16 K, 2996.6 kPa, x1 = 0.7498	23.4974 ± 0.0075
373.16 K, 3945 kPa, x1 = 0.7498	31.4611 ± 0.0086
373.16 K, 4881.1 kPa, x1 = 0.7498	39.5669 ± 0.01
373.16 K, 6041.3 kPa, x1 = 0.7498	49.9291 ± 0.0091
373.17 K, 281.96 kPa, x1 = 0.2658	3.3776 ± 0.0032
373.17 K, 361.95 kPa, x1 = 0.2658	4.3551 ± 0.0033
373.17 K, 469.53 kPa, x1 = 0.2658	5.683 ± 0.0036
